Results as given in US10035801B2, “Pyrazolo compounds and uses thereof” (CONSTELLATION PHARMACEUTICALS, INC., priority 2013, dated 2018).

The compounds below were run against T1, KDM5A (Homo sapiens, UniProt P29375) (assay: KDM5 enzyme assay, KDM5A HTRF (Example 463)). Settings: compounds of Examples 1-432; read-out: Example 463 Assay KDM5A HTRF IC50.
T1 construct: Full length KDM5A enzyme was expressed and purified inhouse; made in house
Type: biochemical
Protocol: Full length KDM5A enzyme was expressed and purified inhouse. Biotin-H3K4me3 peptide was purchased from New England Biolabs. HTRF reagents (containing Eu-labeled H3K4me1-2 antibody, and streptavidin-XL665) were purchased from Cis-Bio International. Plates were read on an Envision multi-label plate reader Perkin Elmer).
The HTRF assay mixture contained 2 nM full length KDM5A enzyme, 100 nM H3K4Me3 peptide substrate, 1 uM 2-OG, 100 uM Fe^2+, 500 uM ascorbate. 50 mM HEPES pH 7.0 buffer, 0.01% Triton-X 100, 2 mM DTT. […] The plates were incubated at room temperature for 60 minutes and then read in the Envision plate reader.

T1 sequence (P29375 whole entry): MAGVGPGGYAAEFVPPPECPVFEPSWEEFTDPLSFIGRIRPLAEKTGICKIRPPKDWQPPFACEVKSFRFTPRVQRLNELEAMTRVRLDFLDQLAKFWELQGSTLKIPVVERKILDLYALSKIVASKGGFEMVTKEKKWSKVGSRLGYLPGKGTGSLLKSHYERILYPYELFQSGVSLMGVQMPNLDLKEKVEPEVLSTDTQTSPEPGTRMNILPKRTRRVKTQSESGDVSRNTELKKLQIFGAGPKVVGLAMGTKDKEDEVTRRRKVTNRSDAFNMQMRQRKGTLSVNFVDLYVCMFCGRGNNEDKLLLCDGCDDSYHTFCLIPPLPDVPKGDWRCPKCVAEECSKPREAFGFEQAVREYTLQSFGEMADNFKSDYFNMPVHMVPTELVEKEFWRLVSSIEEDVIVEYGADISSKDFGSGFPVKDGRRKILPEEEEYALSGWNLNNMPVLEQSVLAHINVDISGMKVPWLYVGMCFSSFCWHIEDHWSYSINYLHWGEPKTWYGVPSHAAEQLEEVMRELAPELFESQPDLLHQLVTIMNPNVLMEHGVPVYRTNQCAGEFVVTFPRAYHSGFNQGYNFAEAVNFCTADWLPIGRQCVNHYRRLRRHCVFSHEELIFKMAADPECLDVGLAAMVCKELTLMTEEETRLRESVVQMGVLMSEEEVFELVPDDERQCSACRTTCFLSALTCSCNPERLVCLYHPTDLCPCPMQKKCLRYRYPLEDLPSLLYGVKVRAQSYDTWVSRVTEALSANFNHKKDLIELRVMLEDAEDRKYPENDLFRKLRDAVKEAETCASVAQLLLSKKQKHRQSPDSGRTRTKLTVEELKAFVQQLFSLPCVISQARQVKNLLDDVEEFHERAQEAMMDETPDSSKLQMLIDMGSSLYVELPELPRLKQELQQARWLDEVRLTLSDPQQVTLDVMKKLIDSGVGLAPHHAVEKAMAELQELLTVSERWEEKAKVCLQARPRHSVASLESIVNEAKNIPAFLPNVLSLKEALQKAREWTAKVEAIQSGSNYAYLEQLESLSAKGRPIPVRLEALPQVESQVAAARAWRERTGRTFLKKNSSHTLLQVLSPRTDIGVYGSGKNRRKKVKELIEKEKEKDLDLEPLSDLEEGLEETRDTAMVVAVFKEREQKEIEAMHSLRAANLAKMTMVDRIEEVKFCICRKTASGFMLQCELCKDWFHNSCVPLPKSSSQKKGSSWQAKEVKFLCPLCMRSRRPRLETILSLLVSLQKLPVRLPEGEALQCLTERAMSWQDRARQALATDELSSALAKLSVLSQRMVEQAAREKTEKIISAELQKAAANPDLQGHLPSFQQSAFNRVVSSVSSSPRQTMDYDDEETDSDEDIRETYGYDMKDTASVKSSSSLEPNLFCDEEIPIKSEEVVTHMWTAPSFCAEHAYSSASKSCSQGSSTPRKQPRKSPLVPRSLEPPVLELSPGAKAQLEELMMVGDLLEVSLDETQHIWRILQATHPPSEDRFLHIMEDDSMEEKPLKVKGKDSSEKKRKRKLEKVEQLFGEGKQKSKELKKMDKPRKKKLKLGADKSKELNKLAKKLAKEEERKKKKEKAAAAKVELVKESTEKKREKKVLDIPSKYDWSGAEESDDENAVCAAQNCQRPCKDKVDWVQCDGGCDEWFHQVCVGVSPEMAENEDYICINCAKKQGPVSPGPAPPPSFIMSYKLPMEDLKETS

IC50	Compound
11 nM	CC(C)c1c(-c2cnn(Cc3ccsc3)c2)[nH]c2c(C#N)cnn2c1=O [Example 95]
34 nM	CC(C)c1c(-c2ccc(Cl)c(C(=O)N3CCOCC3)c2)[nH]c2c(C#N)cnn2c1=O [Example 96]
38 nM	CC(C)c1c(-c2ccc(C(=O)NC3CCCC3)c(Cl)c2)[nH]c2c(C#N)cnn2c1=O [Example 97]
37 nM	CC(C)c1c(-c2cnn(C(C)(C)CO)c2)[nH]c2c(C#N)cnn2c1=O [Example 98]
6 nM	COc1cccc(Cn2cc(-c3[nH]c4c(C#N)cnn4c(=O)c3C(C)C)cn2)c1 [Example 99]
8 nM	CC(C)c1c(-c2cnn(Cc3ccncc3)c2)[nH]c2c(C#N)cnn2c1=O [Example 100]
8.5 nM	CC(C)c1c(-c2cnn(Cc3ccccc3Cl)c2)[nH]c2c(C#N)cnn2c1=O [Example 101]
10 nM	CC(C)c1c(-c2cnn(Cc3cccc(Oc4ccccc4)c3)c2)[nH]c2c(C#N)cnn2c1=O [Example 102]
5.5 nM	CC(C)c1c(-c2cnn(Cc3ccc(Oc4ccccc4)cc3)c2)[nH]c2c(C#N)cnn2c1=O [Example 103]
21 nM	CC(C)c1c(-c2cnn(C3CCCCC3)c2)[nH]c2c(C#N)cnn2c1=O [Example 104]
8 nM	CC(C)c1c(-c2cnn(C(C)c3ccccc3)c2)[nH]c2c(C#N)cnn2c1=O (stereo not drawn) [Example 105]
18 nM	CC(C)c1c(-c2cnn(C3CCC3)c2)[nH]c2c(C#N)cnn2c1=O [Example 106]
19 nM	CCC(C)n1cc(-c2[nH]c3c(C#N)cnn3c(=O)c2C(C)C)cn1 (stereo not drawn) [Example 107]
28 nM	CC(C)c1c(-c2ccc(F)c(C(=O)N3CCCC3)c2)[nH]c2c(C#N)cnn2c1=O [Example 108]
11 nM	CC(C)c1c(-c2ccn(S(=O)(=O)C3CC3)n2)[nH]c2c(C#N)cnn2c1=O [Example 109]
7 nM	CC(C)c1c(-c2ccn(C(=O)C3CC3)n2)[nH]c2c(C#N)cnn2c1=O [Example 110]
15 nM	CC(C)c1c(-c2cnn(CCC3CC3)c2)[nH]c2c(C#N)cnn2c1=O [Example 111]
330 nM	COC(=O)c1c(-c2ccccc2)[nH]c2c(C#N)cnn2c1=O [Example 112]
6 nM	CC(C)c1c(-c2cnn(Cc3cccc(-c4ccccc4)c3)c2)[nH]c2c(C#N)cnn2c1=O [Example 113]
5.5 nM	CC(C)c1c(-c2cnn(CCc3ccccc3)c2)[nH]c2c(C#N)cnn2c1=O [Example 114]
6 nM	COc1ccccc1Cn1cc(-c2[nH]c3c(C#N)cnn3c(=O)c2C(C)C)cn1 [Example 115]
8 nM	COc1ccc(Cn2cc(-c3[nH]c4c(C#N)cnn4c(=O)c3C(C)C)cn2)cc1 [Example 116]

IC50	Compound
14 nM	CC(C)c1c(-c2cnn(C(C)(C)C)c2)[nH]c2c(C#N)cnn2c1=O [Example 117]
15 nM	Cc1ccc(-c2[nH]c3c(C#N)cnn3c(=O)c2C(C)C)cc1C [Example 118]
19 nM	CCOc1ccc(-c2[nH]c3c(C#N)cnn3c(=O)c2C(C)C)cc1Cl [Example 119]
19 nM	COc1ccc(-c2[nH]c3c(C#N)cnn3c(=O)c2C(C)C)cc1C [Example 120]
10 nM	Cc1nc2cc(-c3[nH]c4c(C#N)cnn4c(=O)c3C(C)C)ccc2s1 [Example 121]
13 nM	CC(C)c1c(-c2cnn(Cc3ccccc3Oc3ccccc3)c2)[nH]c2c(C#N)cnn2c1=O [Example 122]
8 nM	CC(C)c1c(-c2cnn(S(=O)(=O)c3ccccc3)c2)[nH]c2c(C#N)cnn2c1=O [Example 123]
11 nM	CC(C)c1c(-c2cnn(C(=O)c3ccccc3)c2)[nH]c2c(C#N)cnn2c1=O [Example 124]
30 nM	CC(C)c1c(-c2cnn(C(c3ccccc3)c3ccccc3)c2)[nH]c2c(C#N)cnn2c1=O [Example 125]
8 nM	CC(C)c1c(-c2cnn(Cc3ccccc3-c3ccccc3)c2)[nH]c2c(C#N)cnn2c1=O [Example 126]
13 nM	CC(C)c1c(-c2cnn(CC3CCCCC3)c2)[nH]c2c(C#N)cnn2c1=O [Example 127]
16 nM	CC(C)c1c(-c2cnn(Cc3cccnc3)c2)[nH]c2c(C#N)cnn2c1=O [Example 128]
23 nM	C=Cc1c(-c2ccccc2)[nH]c2c(C#N)cnn2c1=O [Example 129]
4.5 nM	CC(C)c1c(-c2cc3ccccc3o2)[nH]c2c(C#N)cnn2c1=O [Example 130]
18 nM	CC(C)c1c(/C=C/c2ccccc2)[nH]c2c(C#N)cnn2c1=O [Example 131]
7.2 nM	CCc1ccc(-c2[nH]c3c(C#N)cnn3c(=O)c2C(C)C)o1 [Example 132]
11 nM	COCCn1cc(-c2[nH]c3c(C#N)cnn3c(=O)c2C(C)C)cn1 [Example 133]
5.5 nM	CC(C)c1c(-c2cnn(Cc3cccc4ccccc34)c2)[nH]c2c(C#N)cnn2c1=O [Example 134]
5.8 nM	CC(C)c1c(-c2cnn(Cc3ccc(-c4ccccc4)cc3)c2)[nH]c2c(C#N)cnn2c1=O [Example 135]
9 nM	CC(C)c1c(-c2cccc(Oc3ccccc3)c2)[nH]c2c(C#N)cnn2c1=O [Example 136]
12 nM	CC(C)c1c(C#Cc2ccccc2)[nH]c2c(C#N)cnn2c1=O [Example 137]
15 nM	CC(C)c1c(-c2ccc(Cl)c(Cl)c2)[nH]c2c(C#N)cnn2c1=O [Example 138]

IC50	Compound
13 nM	COc1ccc(-c2[nH]c3c(C#N)cnn3c(=O)c2C(C)C)cc1Cl [Example 139]
12 nM	COc1cc(-c2[nH]c3c(C#N)cnn3c(=O)c2C(C)C)ccc1C [Example 140]
9.3 nM	CC(C)c1c(-c2cnn(Cc3cscn3)c2)[nH]c2c(C#N)cnn2c1=O [Example 141]
12 nM	CC(C)c1c(-c2ccc3[nH]ncc3c2)[nH]c2c(C#N)cnn2c1=O [Example 142]
25 nM	COc1ccc(-c2[nH]c3c(C#N)cnn3c(=O)c2C(C)C)cc1OC [Example 143]
19 nM	COc1c(C)cc(-c2[nH]c3c(C#N)cnn3c(=O)c2C(C)C)cc1C [Example 144]
17 nM	CC(C)c1c(-c2cnn(C3COC3)c2)[nH]c2c(C#N)cnn2c1=O [Example 145]
6 nM	CC(C)c1c(-c2cnn(CCN(C)C)c2)[nH]c2c(C#N)cnn2c1=O [Example 149]
14 nM	Cc1ccc(-c2[nH]c3c(C#N)cnn3c(=O)c2C(C)C)cc1C#N [Example 150]
17 nM	CC(C)c1c(-c2ccc3c(c2)OCO3)[nH]c2c(C#N)cnn2c1=O [Example 151]
14 nM	CC(C)c1c(-c2ccc3c(c2)CCO3)[nH]c2c(C#N)cnn2c1=O [Example 152]
6 nM	CC(C)c1c(-c2cnn(Cc3cccc(F)c3)c2)[nH]c2c(C#N)cnn2c1=O [Example 154]
9.8 nM	CC(C)c1c(-c2cnn(Cc3cccs3)c2)[nH]c2c(C#N)cnn2c1=O [Example 155]
22 nM	CC(C)c1c(-c2cnn(CC(F)(F)F)c2)[nH]c2c(C#N)cnn2c1=O [Example 156]
7 nM	CC(C)c1c(-c2cnn(Cc3cccc(Cl)c3)c2)[nH]c2c(C#N)cnn2c1=O [Example 157]
15 nM	CC(C)Cn1cc(-c2[nH]c3c(C#N)cnn3c(=O)c2C(C)C)cn1 [Example 158]
35 nM	CC(C)c1c(-c2cnn(CCC(F)(F)F)c2)[nH]c2c(C#N)cnn2c1=O [Example 159]
19 nM	CC(C)c1c(-c2cnn(C(F)F)c2)[nH]c2c(C#N)cnn2c1=O [Example 160]
13 nM	CC(C)c1c(-c2cnn(CCC#N)c2)[nH]c2c(C#N)cnn2c1=O [Example 161]
64 nM	CCc1c(-c2ccoc2)n(C)c2c(C#N)cnn2c1=O [Example 162]
97 nM	CC(C)c1c(-c2cccc(F)c2)n(C)c2c(C#N)cnn2c1=O [Example 163]
150 nM	CC(C)c1c(-c2cccc(C(F)(F)F)c2)n(C)c2c(C#N)cnn2c1=O [Example 164]

IC50	Compound
61 nM	COc1cccc(-c2c(C(C)C)c(=O)n3ncc(C#N)c3n2C)c1 [Example 165]
200 nM	CC(C)c1c(-c2cccc(C#N)c2)n(C)c2c(C#N)cnn2c1=O [Example 166]
100 nM	CC(C)c1c(-c2cnn(C)c2)n(C)c2c(C#N)cnn2c1=O [Example 167]
46 nM	CC(C)c1c(-c2cccs2)n(C)c2c(C#N)cnn2c1=O [Example 168]
47 nM	CC(C)c1c(-c2ccsc2)n(C)c2c(C#N)cnn2c1=O [Example 169]
210 nM	CC(C)c1c(C2=CCOC2)n(C)c2c(C#N)cnn2c1=O [Example 170]
37 nM	CC(C)c1c(-c2ccn[nH]2)n(C)c2c(C#N)cnn2c1=O [Example 171]
140 nM	CC(C)c1c(-c2ccc(C(F)(F)F)cc2)n(C)c2c(C#N)cnn2c1=O [Example 172]
39 nM	COc1ccc(-c2c(C(C)C)c(=O)n3ncc(C#N)c3n2C)cc1 [Example 173]
81 nM	CC(C)c1c(-c2ccccc2F)n(C)c2c(C#N)cnn2c1=O [Example 174]
43 nM	CC(C)c1c(-c2cccc(-c3ccccc3)c2)n(C)c2c(C#N)cnn2c1=O [Example 175]
52 nM	CCc1c(-c2cccc(-c3ccccc3)c2)n(C)c2c(C#N)cnn2c1=O [Example 176]
38 nM	CCc1c(-c2ccco2)n(C)c2c(C#N)cnn2c1=O [Example 177]
43 nM	CC(C)c1c(-c2ccco2)n(C)c2c(C#N)cnn2c1=O [Example 178]
35 nM	C=Cc1c(C(C)C)c(=O)n2ncc(C#N)c2n1C [Example 179]
61 nM	C=C(C)c1c(C(C)C)c(=O)n2ncc(C#N)c2n1C [Example 180]
60 nM	CC(C)c1c(-c2cnn(Cc3ccccc3)c2)n(C)c2c(C#N)cnn2c1=O [Example 181]
130 nM	CCc1c(-c2cnn(Cc3ccccc3)c2)n(C)c2c(C#N)cnn2c1=O [Example 182]
33 nM	CC(C)c1c(-c2ccc(F)cc2)n(C)c2c(C#N)cnn2c1=O [Example 183]
56 nM	CC(C)c1c(-c2ccc(C#N)cc2)n(C)c2c(C#N)cnn2c1=O [Example 184]
20 nM	CC(C)c1c(-c2ccc(-c3ccccc3)o2)n(C)c2c(C#N)cnn2c1=O [Example 185]
